Test results reported in US11331354B2, “Fecal virome and therapeutic efficacy of fecal microbiota transplantation” (priority 2018, dated 2022).

What was measured:
[1] = tested on: Clostridium difficile infection; assay: Randomised controlled trial substudy of FMT versus vancomycin in patients with CDI: clinical outcome (symptoms, stool C. difficile toxin); format: in vivo, human
Method: The current study was a substudy from a randomised controlled trial (RCT) of FMT versus vancomycin for patients with CDI. Consecutive CDI subjects enrolled into this RCT were invited to participate in a substudy of assessment of fecal microbiota. Patients were included if they had three or more loose or watery stools per day for at least two consecutive days, or eight or more soft or loose stools in 48 hours, and a positive stool test for C. difficile based on a two-step testing algorithm in the hospital, a positive GDH (glutamate dehydrogenase) screening test followed by a positive PCR test of C. difficile. A total of 24 subjects with CDI and 20 healthy household controls were recruited, and stool samples at baseline were obtained for analyses of virome and bacterial microbiome. Among them, 14 CDI subjects consented to have stool samples collected serially after treatment for microbiome analysis. Nine CDI subjects were treated with FMT and five were treated with vancomycin, and they were followed up at baseline and weeks 2, 4, 10 and 16 after treatment (FIG. 6). One patient FMT6 had recurrent CDI. This patient had five previous episodes of CDI prior to FMT. Subjects in the FMT group received 5 days of vancomycin followed by donor-infused stool via nasojejunal route, and those who had standard therapy (STD) received oral vancomycin 500 mg four times per day for 10 days. A computer-generated randomisation schedule was used to assign patients to the treatment sequences. All patients kept a stool diary and were questioned about stool frequency and consistency and medication use.
Treatment response was defined as an absence of diarrhoea or persistent diarrhoea that could be explained by other causes with a negative stool test for C. difficile toxin, while relapse was defined as diarrhoea with a positive stool test for C. difficile toxin. Treatment cure is defined as symptom resolution and a negative Clostridium difficile toxin in stool until the last follow-up (last follow-up was referred to as the last stool collection time point, as shown in FIG. 6). […] CDI recipients FMT8 and FMT9 shared the same donor, and this donor was termed ‘D8’. None of the patients had received antibiotics or proton pump inhibitors after FMT.
1. C. difficile infection was defined as diarrhea (≥3 soft, loose or watery stools per day for at least 2 consecutive days or ≥8 soft or loose stools in 48 hours) and a positive stool test for C. difficile toxin; and
Family members provided donor stool for subjects randomised to FMT arm. Cure after FMT or vancomycin therapy was defined as symptom resolution and negative Clostridium difficile toxin in stool at last follow-up by PCR assay. Relapse was defined as diarrhea with a positive stool test for C. difficile toxin.
In subjects who received FMT, a nasoduodenal tube was inserted with radiology guidance. Donor feces was diluted with 500 ml of sterile saline (0.9%), blended and the supernatant was strained with filter paper and poured in a sterile bottle. Within 6 hours after collection of feces by the donor, the solution was infused through a nasoduodenal tube (2 to 3 minutes per 50 ml). The tube was removed 30 minutes after the infusion, and patients were monitored for 2 hours. In subjects with received FMT, a minimum of 50 g of donor stool was collected on the same day of infusion and used within 6 hours of collection.

[2] = tested on: enteric virome (Caudovirales, Microviridae, Anelloviridae); assay: Ultra-deep metagenomic sequencing of virus-like particle (VLP) preparations from stool: enteric virome abundance, diversity, richness, donor-derived contigs; format: in vivo, human
Method: VLPs were enriched from pulverised human stool, using a protocol according to previously described methods.^11 17 VLP DNAs were quantified (NanoDrop), and 1 μg of DNA was randomly fragmented by ultrasonication (Covaris) followed by library construction. The qualified libraries were amplified on cBot to generate the cluster on the flow cell (TruSeq PE Cluster Kit V3-cBot-HS, Illumina). The amplified libraries were sequenced paired end on the HiSeq 2000 System (TruSeq SBS KIT-HS V3, Illumina) (BGI, Shenzhen, China; standard 2×150 bp run), generating 20-60 million raw sequences (5-8 G raw data) per sample (sequence statistics in Table 3). Sequence processing and quality control, de novo contig assembly and taxonomy annotation were performed.
To estimate contig abundance and calculate sequence diversity, all reads were aligned to the resulting contigs using Bowtie2 (V. 2.2.9).^18 The mapped sequence counts, contig lengths and total sequence counts were used to normalise the sequence counts and represent the RPKM (reads per kilobase per million) of each sample to the contigs. These values were used to generate an operational taxonomic unit (OTU) relative abundance table, which was annotated with the taxonomy described above. The virome abundance data were imported into R 3.2.3. Richness, diversity and rarefaction calculation were performed using the estimated richness function of the phyloseq package. Diversity and richness plots were generated in GraphPad Prism (V. 6.0). Spearman correlations and their significance were calculated using the cor and cor.test functions in R, respectively. […] Correlation plots were generated using the corrplot R package. Heat maps were generated using the pheatmap R package. LEfSe linear discriminant analysis and multivariate analysis were performed.
To establish the presence of a species or a contig within a sample, the RPKM of a contig or a species is set to be >2 (a stringent criteria), so as to rule out the false-positive finding) for the contig or the species to be assured as present within a sample. In samples after FMT, if a contig or a species was not present in the recipient baseline sample but present in the corresponding donor baseline sample and in the recipient post-FMT sample, the contig or species was defined as ‘donor-derived’; if a contig or a species was not present in the corresponding donor baseline sample but detected both in the recipient baseline sample and in the recipient post-FMT sample, the contig or the species was defined as ‘recipient-exclusive’, if a contig or a species was present across the recipient baseline sample, the recipient post-FMT sample and the corresponding donor baseline sample, the contig or the species was defined as ‘donor recipient coexisted.’ To determine the abundance alteration of Caudovirales species after FMT, the species' relative abundance (RA) fold change was defined as fc=log 2(post-FMT last follow-up RA/pre-FMT baseline RA).
Approximately 200 mg of stool was suspended in 400 μl saline-magnesium buffer (0.1 M NaCl, 0.008 M MgSO4-7H2O, 0.002% gelatin, 0.05 M Tris pH7.5) by vortexing for 10 min. Stool suspensions were then cleared by centrifugation at 2,000×g to remove debris and cells. Clarified suspensions were passed through one […] followed by two […] filters to remove residual host and bacterial cells. […]

With CN[C@H](CC(C)C)C(=O)N[C@H]1C(=O)N[C@@H](CC(N)=O)C(=O)N[C@H]2C(=O)N[C@H]3C(=O)N[C@H](C(=O)N[C@H](C(=O)O)c4cc(O)cc(O)c4-c4cc3ccc4O)[C@H](O)c3ccc(c(Cl)c3)Oc3cc2cc(c3O[C@@H]2O[C@H](CO)[C@@H](O)[C@H](O)[C@H]2O[C@H]2C[C@](C)(N)[C@H](O)[C@H](C)O2)Oc2ccc(cc2Cl)[C@H]1O [vancomycin] as the compound, how does the “subjects cured of CDI (responders)” value ([1]; median follow-up of 16 weeks, nine FMT subjects, five vancomycin patients) read?
The value was “three of the five”.

What about the Recurrence at week ([1]; subject STD1) of the same compound?
Its Recurrence at week is “at week 12”.

What about the “Outcome (till last follow-up)” value ([1]; subject STD1, severe CDI, follow-up 20 weeks) of the same compound?
The value was “Recurrence”.

What about the Recurrence at week ([1]; subject STD2) of the same compound?
The Recurrence at week was “at week 7”.

What about the “Outcome (till last follow-up)” value ([1]; subject STD2, moderate CDI, follow-up 7 weeks) of the same compound?
The value was “Recurrence”.

And the “Outcome (till last follow-up)” value ([1]; subject STD3, severe CDI, follow-up 14 weeks)?
Its value is “Cured”.

And the “Outcome (till last follow-up)” value ([1]; subject STD4, severe CDI, follow-up 17 weeks)?
Its value is “Cured”.

And the “Outcome (till last follow-up)” value ([1]; subject STD5, moderate CDI, follow-up 26 weeks)?
The value was “Cured”.

What about the “virome structure over time” value ([2]; CDI subjects who did not respond to vancomycin) of the same compound?
Its value is “marked oscillation”.

And the “virome structure over time” value ([2]; CDI subjects who responded to vancomycin)?
Its value is “not significantly altered”.

And the “change in Caudovirales abundance after treatment” value ([2]; stool of CDI subjects, pre- versus post-treatment)?
Its value is “increased”.

And the “Caudovirales diversity and richness as well as bacterial diversity and richness over the course of treatment” value ([2]; subjects who did not respond to vancomycin (STD1 and STD2))?
Its value is “substantial fluctuation”.

And the “change in Caudovirales diversity or richness” value ([2]; subjects who responded to vancomycin (STD3, STD4, STD5))?
Its value is “no significant change”.
